# Experimental data: patent publication EP0438856A2, “Use of melatonin to protect the skin against the influence of UV-rays” (SHISEIDO COMPANY LIMITED, priority 1989, dated 1991)
# How the values were obtained:
# [1] = tested on: Fibroblasts derived from a human being; assay: Effect on cell damage caused by UV-rays irradiation (colony formation); assay type: cell-based; conditions: 100 mM melatonin in phosphate buffer, vs system without melatonin, p < 0.01, Fig. 1
# Protocol: Fibroblasts derived from a human being were seeded in a laboratory dish having a diameter of 6 cm, at 400 cells/laboratory dish, and were cultured in Eagle's MEM medium containing 10% fetal calf serum in an incubator at 5% CO₂ , at 37°C for 24 hours. After the medium was exchanged with a phosphate buffer containing 100 mM of melatonin (SIGMA Co.), it was irradiated by UVB (Toshiba FL-SE 20W) at 50 mJ/cm² or 100 mJ/cm², followed by a further culturing for 6 days. The culture was fixed with a 10% neutral formalin, stained with a 30-fold Gimza solution, and the colonies per laboratory dish were counted. The colonies of the irradiated group were divided by the colonies of the non-irradiated group, to measure the colony formation ratio. As a Control, a phosphate buffer containing no melatonin was added. In Fig. 1, (a) is the system containing no melatonin and (b) is the system containing 100 mM of melatonin. […] The risk ratio p becomes statistically significant at p < 0.05. Accordingly, it can be seen that melatonin has a protective effect against cell damage caused by UV-rays irradiation.
# hairless mice = assay type: in vivo, albino hairless mice
# Protocol: Male albino hairless mice 8 weeks old (strain derived from Skh-HR-1, weight 25 - 35 g) were used, and one group consisted of 12 to 14 mice.
# Melatonin (SIGMA Co.) was used as a suspension in 20% ethanol containing physiological saline, and administered by an intraperitoneal injection of 0.1 ml in doses at 3 levels of 0 mg, 1 mg, and 10 mg per day.
# A Toshiba FL20-SE was mounted in a cage for irradiation, and irradiation was carried out at an irradiation intensity of 0.94 mW/cm², for 8 minutes per day, three times per week on alternate days for weeks. The irradiation was carried out 57 times, and the total irradiation dose was 25.7 J/cm². The administration of the sample was commenced simultaneously with the UV rays irradiation, and after the completion of the UV rays irradiation, the sample was administered continuously for an additional 10 weeks.
# The size of the tumor generated was measured with slide calipers.
# A t-examination was practiced for the number of tumors with sizes of 5 mm or more per one individual, and the number of tumors generated with sizes of 5 mm or more is shown in Fig. 2.
# tumors = conditions: cited from earlier work
structure (smiles),measurement,setting,value
"COc1ccc2[nH]cc(CCNC(C)=O)c2c1 [melatonin, N-acetyl-5-methoxytryptamine]",colony formation ratio,[1]; UVB 50 mJ/cm²,significantly higher colony formation ratio
same,colony formation ratio,[1]; UVB 100 mJ/cm²,significantly higher colony formation ratio
same,protective effect against skin cancer,"hairless mice; group administered with 10 mg of melatonin per day, intraperitoneal",a protective effect against skin cancer was seen
same,generation and proliferation of tumors (number of tumors generated with sizes of 5 mm or more per one mouse),"hairless mice; melatonin administered group (1 mg or 10 mg per day, intraperitoneal), UV irradiated, p < 0.05 on 23 days and 26 days and thereafter, Fig. 2",significantly suppressed
same,proliferation of tumors,"tumors; experimental leukemia, sarcoma, mammary tumors (literature reports)",suppressing of a proliferation of tumors
same,course of tumors,"tumors; mammary tumors (Hamilton, 1969) or lung cancer (Lapin and Ebels, 1976)",tumors were worsened
